Measurements from US20240050428A1 (Cullgen (Shanghai), Inc., priority 2020, published 2024).
Like-named read-outs stand apart in the source and are kept apart here.

Tests used:
[1] = system: MOLM-13 cells; assay: Cell viability assay (CellTiter-Glo) in MOLM-13 cells, alone or with gilteritinib; assay type: cell-based; settings: MOLM-13 cells, three days, CellTiter-Glo
[2] = system: MV4;11 cells; assay: Cell viability assay (CellTiter-Glo) in MV4;11 cells, alone or with gilteritinib; assay type: cell-based; settings: MV4;11 cells, three days, CellTiter-Glo, read-out: MV4
[3] = Homo sapiens, MOLM-13, 72 h, compound alone (without gilteritinib), read-out: MOLM-13 IC50
[4] = Homo sapiens, MOLM-13, 72 h, compound with gilteritinib 20 nM, read-out: MOLM-13 IC50 gilteritinib
[5] = Homo sapiens, MV4-11, 72 h, compound alone (without gilteritinib), 11 IC50
[6] = Homo sapiens, MV4-11, 72 h, compound with gilteritinib 10 nM, 11 IC50 gilteritinib

Row | SMILES | IC50 [1, 3] [nM] | IC50 [1, 4] [nM] | IC50 [2, 5] [nM] | IC50 [2, 6] [nM] | IC50 ([1]; compound alone (without gilteritinib), read-out: MOLM-13 IC50) [nM] | IC50 ([2]; compound with gilteritinib 10 nM, 11 IC50 gilteritinib) [nM] | IC50 ([1]; Homo sapiens, 72 h, compound alone (without gilteritinib), read-out: MOLM-13 IC50) [nM] | IC50 ([1]; Homo sapiens, 72 h, compound with gilteritinib 20 nM, read-out: MOLM-13 IC50 gilteritinib) [nM] | IC50 ([2]; Homo sapiens, 72 h, compound alone (without gilteritinib), 11 IC50) [nM] | IC50 ([2]; Homo sapiens, 72 h, compound with gilteritinib 10 nM, 11 IC50 gilteritinib) [nM]
1 | O=C1CCC(N2C(=O)c3ccc(NC[C@H]4C[C@H](n5cc(-c6cnc7ccccc7n6)c(C6CC6)n5)C4)cc3C2=O)C(=O)N1 (stereo partly drawn) [GS-579, 5-(((trans-3-(3-Cyclopropyl-4-(quinoxalin-2-yl)-1H-pyrazol-1-yl)cyclobutyl)methyl)amino)-2-(2,6-dioxopiperidin-3-yl)isoindoline-1,3-dione] | < 10 | < 10 | < 10 | < 10 |  |  |  |  |  | 
2 | O=C1CCC(N2C(=O)c3ccc(NCCC[C@H]4C[C@H](n5cc(-c6cnc7ccc(N8CCN(C9CCC9)CC8)cc7n6)cn5)C4)cc3C2=O)C(=O)N1 (stereo partly drawn) [GS-580, 5-((3-(trans-3-(4-(7-(4-Cyclobutylpiperazin-1-yl)quinoxalin-2-yl)-1H-pyrazol-1-yl)cyclobutyl)propyl)amino)-2-(2,6-dioxopiperidin-3-yl)isoindoline-1,3-dione] | 10 to 100 | < 10 | 10 to 100 | < 10 |  |  |  |  |  | 
3 | C[C@@H]1CN(c2ccc3ncc(-c4cnn([C@H]5C[C@H](CCCNc6ccc7c(c6)C(=O)N(C6CCC(=O)NC6=O)C7=O)C5)c4)nc3c2)CCN1C (stereo partly drawn) [GS-581, 5-((3-(trans-3-(4-(7-((R)-3,4-Dimethylpiperazin-1-yl)quinoxalin-2-yl)-1H-pyrazol-1-yl)cyclobutyl)propyl)amino)-2-(2,6-dioxopiperidin-3-yl)isoindoline-1,3-dione] | > 1000 | < 10 | > 1000 | 10 to 100 |  |  |  |  |  | 
4 | O=C1CCC(N2C(=O)c3ccc(NCCC[C@H]4C[C@H](n5cc(-c6ccccn6)cn5)C4)cc3C2=O)C(=O)N1 (stereo partly drawn) [GS-582, 2-(2,6-Dioxopiperidin-3-yl)-5-((3-(trans-3-(4-(pyridin-2-yl)-1H-pyrazol-1-yl)cyclobutyl)propyl)amino)isoindoline-1,3-dione] | > 1000 | 10 to 100 | 100 to 1000 | 10 to 100 |  |  |  |  |  | 
5 | Cc1cccc(-c2cnn([C@H]3C[C@H](CCCNc4ccc5c(c4)C(=O)N(C4CCC(=O)NC4=O)C5=O)C3)c2)n1 (stereo partly drawn) [GS-584, 2-(2,6-Dioxopiperidin-3-yl)-5-((3-(trans-3-(4-(6-methylpyridin-2-yl)-1H-pyrazol-1-yl)cyclobutyl)propyl)amino)isoindoline-1,3-dione] | 100 to 1000 | < 10 | 10 to 100 | 10 to 100 |  |  |  |  |  | 
6 | O=C1CCC(N2C(=O)c3ccc(NCCC[C@H]4C[C@H](n5cc(-c6cnc7ccc(NC8COC8)cc7n6)cn5)C4)cc3C2=O)C(=O)N1 (stereo partly drawn) [GS-585, 2-(2,6-Dioxopiperidin-3-yl)-5-((3-(trans-3-(4-(7-(oxetan-3-ylamino)quinoxalin-2-yl)-1H-pyrazol-1-yl)cyclobutyl)propyl)amino)isoindoline-1,3-dione] | 10 to 100 | < 10 | 10 to 100 | < 10 |  |  |  |  |  | 
7 | O=C1CCC(N2C(=O)c3ccc(NCCC[C@H]4C[C@@H](n5cc(-c6cnc7cc(NC8COC8)ccc7n6)c(C6CC6)n5)C4)cc3C2=O)C(=O)N1 (stereo partly drawn) [GS-586, 5-((3-(Cis-3-(3-cyclopropyl-4-(6-(oxetan-3-ylamino)quinoxalin-2-yl)-1H-pyrazol-1-yl)cyclobutyl)propyl)amino)-2-(2,6-dioxopiperidin-3-yl)isoindoline-1,3-dione] | 10 to 100 | < 10 | 10 to 100 | < 10 |  |  |  |  |  | 
8 | O=C1CCC(N2C(=O)c3ccc(NCCC[C@H]4C[C@H](n5cc(-c6cnc7ccc(N8CCN(CC(F)(F)F)CC8)cc7n6)cn5)C4)cc3C2=O)C(=O)N1 (stereo partly drawn) [GS-587, 2-(2,6-Dioxopiperidin-3-yl)-5-((3-(trans-3-(4-(7-(4-(2,2,2-trifluoroethyl)piperazin-1-yl)quinoxalin-2-yl)-1H-pyrazol-1-yl)cyclobutyl)propyl)amino)isoindoline-1,3-dione] | 100 to 1000 | < 10 | 10 to 100 | < 10 |  |  |  |  |  | 
9 | O=C1CCC(N2C(=O)c3ccc(NC[C@H]4C[C@H](n5ccc(C6CC6)n5)C4)cc3C2=O)C(=O)N1 (stereo partly drawn) [GS-588, 5-(((trans-3-(3-Cyclopropyl-1H-pyrazol-1-yl)cyclobutyl)methyl)amino)-2-(2,6-dioxopiperidin-3-yl)isoindoline-1,3-dione] | 10 to 100 | 100 to 1000 | > 1000 | > 1000 |  |  |  |  |  | 
10 | Cc1cccc(-c2cn([C@H]3C[C@H](CNc4ccc5c(c4)C(=O)N(C4CCC(=O)NC4=O)C5=O)C3)nc2C2CC2)n1 (stereo partly drawn) [GS-589, 5-(((trans-3-(3-Cyclopropyl-4-(6-methylpyridin-2-yl)-1H-pyrazol-1-yl)cyclobutyl)methyl)amino)-2-(2,6-dioxopiperidin-3-yl)isoindoline-1,3-dione] | 10 to 100 | < 10 | 10 to 100 | < 10 |  |  |  |  |  | 
11 | O=C1CCC(N2C(=O)c3ccc(NC[C@H]4C[C@H](n5nccc5C5CC5)C4)cc3C2=O)C(=O)N1 (stereo partly drawn) [GS-590, 5-(((trans-3-(5-cyclopropyl-1H-pyrazol-1-yl)cyclobutyl)methyl)amino)-2-(2,6-dioxopiperidin-3-yl)isoindoline-1,3-dione] | < 10 | 100 to 1000 | > 1000 | 100 to 1000 |  |  |  |  |  | 
12 | O=C1CCC(N2C(=O)c3ccc(NCCC[C@H]4C[C@H](n5ccc(C6CC6)n5)C4)cc3C2=O)C(=O)N1 (stereo partly drawn) [GS-591, 5-((3-(trans-3-(3-Cyclopropyl-1H-pyrazol-1-yl)cyclobutyl)propyl)amino)-2-(2,6-dioxopiperidin-3-yl)isoindoline-1,3-dione] | > 1000 | 100 to 1000 | > 1000 | 100 to 1000 |  |  |  |  |  | 
13 | Cc1cccc(-c2cn([C@H]3C[C@H](CCCNc4ccc5c(c4)C(=O)N(C4CCC(=O)NC4=O)C5=O)C3)nc2C2CC2)n1 (stereo partly drawn) [GS-592, 5-((3-(trans-3-(3-Cyclopropyl-4-(6-methylpyridin-2-yl)-1H-pyrazol-1-yl)cyclobutyl)propyl)amino)-2-(2,6-dioxopiperidin-3-yl)isoindoline-1,3-dione] | 100 to 1000 | 10 to 100 | 10 to 100 | < 10 |  |  |  |  |  | 
14 | O=C1CCC(N2C(=O)c3ccc(NCCC[C@H]4C[C@H](n5cc(-c6cnc7ccc(N8CCN(CC(F)(F)F)CC8)cc7n6)cn5)C4)cc3C2=O)C(=O)N1 (stereo partly drawn) [GS-593, 2-(2,6-Dioxopiperidin-3-yl)-5-((3-(trans-3-(4-(7-(4-(2,2,2-trifluoroethyl)piperazin-1-yl)quinoxalin-2-yl)-1H-pyrazol-1-yl)cyclobutyl)propyl)amino)isoindoline-1,3-dione] |  |  |  |  | 100 to 1000 | < 10 |  |  |  | 
15 | CN1CC2CC1CN2c1ccc2ncc(-c3cn([C@H]4C[C@H](CCCNc5ccc6c(c5)C(=O)N(C5CCC(=O)NC5=O)C6=O)C4)nc3C3CC3)nc2c1 (stereo partly drawn) [GS-594, 5-((3-(trans-3-(3-Cyclopropyl-4-(7-((1R,4R)-5-methyl-2,5-diazabicyclo[2.2.1]heptan-2-yl)quinoxalin-2-yl)-1H-pyrazol-1-yl)cyclobutyl)propyl)amino)-2-(2,6-dioxopiperidin-3-yl)isoindoline-1,3-dione] | 100 to 1000 | < 10 | 10 to 100 | < 10 |  |  |  |  |  | 
16 | O=C1CCC(N2C(=O)c3ccc(NC[C@H]4C[C@H](n5cc(-c6ccccn6)c(C6CC6)n5)C4)cc3C2=O)C(=O)N1 (stereo partly drawn) [GS-595, 5-(((trans-3-(3-Cyclopropyl-4-(pyridin-2-yl)-1H-pyrazol-1-yl)cyclobutyl)methyl)amino)-2-(2,6-dioxopiperidin-3-yl)isoindoline-1,3-dione] | 100 to 1000 | 10 to 100 | 100 to 1000 | 10 to 100 |  |  |  |  |  | 
17 | O=C1CCC(N2C(=O)c3ccc(NC[C@H]4C[C@H](n5cc(-c6cnccn6)c(C6CC6)n5)C4)cc3C2=O)C(=O)N1 (stereo partly drawn) [GS-596, 5-(((trans-3-(3-Cyclopropyl-4-(pyrazin-2-yl)-1H-pyrazol-1-yl)cyclobutyl)methyl)amino)-2-(2,6-dioxopiperidin-3-yl)isoindoline-1,3-dione] | > 1000 | 100 to 1000 | 100 to 1000 | 100 to 1000 |  |  |  |  |  | 
18 | O=C1CCC(N2C(=O)c3ccc(NC[C@H]4C[C@H](n5cc(-c6cccnn6)c(C6CC6)n5)C4)cc3C2=O)C(=O)N1 (stereo partly drawn) [GS-597, 5-(((trans-3-(3-Cyclopropyl-4-(pyridazin-3-yl)-1H-pyrazol-1-yl)cyclobutyl)methyl)amino)-2-(2,6-dioxopiperidin-3-yl)isoindoline-1,3-dione] | > 1000 | 100 to 1000 | 10 to 100 | > 1000 |  |  |  |  |  | 
19 | O=C1CCC(N2C(=O)c3ccc(NC[C@H]4C[C@H](n5cc(-c6ccccc6)c(C6CC6)n5)C4)cc3C2=O)C(=O)N1 (stereo partly drawn) [GS-598, 5-(((trans-3-(3-Cyclopropyl-4-phenyl-1H-pyrazol-1-yl)cyclobutyl)methyl)amino)-2-(2,6-dioxopiperidin-3-yl)isoindoline-1,3-dione] |  |  |  |  |  |  | 100 to 1000 | 10 to 100 | 10 to 100 | < 10
20 | O=C1CCC(N2C(=O)c3ccc(NC[C@H]4C[C@H](n5cc(-c6ncccn6)c(C6CC6)n5)C4)cc3C2=O)C(=O)N1 (stereo partly drawn) [GS-599, 5-(((trans-3-(3-Cyclopropyl-4-(pyrimidin-2-yl)-1H-pyrazol-1-yl)cyclobutyl)methyl)amino)-2-(2,6-dioxopiperidin-3-yl)isoindoline-1,3-dione] | 100 to 1000 | 100 to 1000 | 100 to 1000 | 10 to 100 |  |  |  |  |  | 
